The values that follow come from patent US12275734B1, “Pleuromutilin onium salt derivative containing a 3H-imidazo[4,5-c]pyridine side chain, and a preparation method and application thereof” (SHAANXI UNIVERSITY OF SCIENCE AND TECHNOLOGY, priority 2024, dated 2025).

The structures appear in SMILES notation. Converted amounts (≈) assume the structure as drawn.

Data set [1] concerns Staphylococcus aureus (MRSA, ATCC 33591). The data set is described as follows: Mouse MRSA systemic infection model, H&E tissue sections. In kind it is in vivo. As to conditions: MRSA-infected mice. On the procedure: (§1) Establishment of a mouse model of MRSA systemic infection
(§2) (2) Pretreatment: All mice received cyclophosphamide treatment, with the first intraperitoneal injection of 150 mg/kg cyclophosphamide 4 days before infection and the second intraperitoneal injection of 100 mg/kg cyclophosphamide 1 day before infection.
(4) Infection process: Mice were anesthetized with isoflurane and infected by intraperitoneal injection of Staphylococcus aureus (MRSA, ATCC 33591) at a concentration of 10^7 CFU/mL. […]
(2) Processing: • (a) Time point: At the first hour after infection, mice in the experimental group received intraperitoneal injection of 0.5 mL of compounds of different concentrations, while mice in the control group received the same volume of solvent. • (b) Treatment time: […]
Part II: The samples were fixed with 10% formalin buffer, then embedded in paraffin and sectioned. The sections were stained with hematoxylin and eosin (H&E) and then examined under an optical microscope.

In data set [2] the test system is HEK293 Cells. The data set is described as follows: Cytotoxicity, Cell Counting Kit-8. In kind it is cell-based. As to conditions: human, 24 h. On the procedure: (§3) Cell Counting Kit-8 was used to evaluate the cytotoxicity of the compounds.
(§4) (4) Cell culture: HepG2, HEK293 and A549 cells were evenly dispersed in culture medium, seeded into 96-well plates, and cultured under appropriate environmental conditions to keep the cells completely attached to the well walls.
(§5) (5) Compound treatment: Add different concentrations of compounds I-8 and I-9 to each well (the concentrations are 0.78, 1.56, 3.13, 6.25, 12.5, 25, 50 and 100 μM, respectively, and perform 6 parallel experiments). Set up a blank control group and a normal control group. After incubation for 24 hours, observe the cell condition, which observed under a microscope.
(§6) (6) CCK-8 solution treatment: Add CCK-8 solution to each well and incubate for 4 hours to allow it to react with the cells.
(§7) (7) Absorbance determination: Use a full-wavelength scanning multifunctional reader, place the 96-well plate in the instrument, oscillate to mix to make the color evenly distributed, and measure the absorbance value at 490 nm.
(§8) (8) Data analysis: Based on the measured absorbance values, the cell survival rate at different concentrations can be calculated. The median cytotoxic concentration was used to evaluate the cytotoxicity of the compound to A549, HEK293 and HepG2 cells.

Data set [3] has as its system A549 Cells. The data set is described as follows: Cytotoxicity, Cell Counting Kit-8. As to conditions: human, 24 h. Format: cell-based. On the procedure: as §3, §4, §5, §6, §7, §8
A general note: Tetrazolium assays rely on reduction of a dye to a coloured formazan, in cell work by metabolically active cells.

The test system of data set [4] is HepG2 Cells. The data set is described as follows: Cytotoxicity, Cell Counting Kit-8. Format: cell-based. As to conditions: human, 24 h. On the procedure: as §3, §4, §5, §6, §7, §8
For data set [5], the system named is S. aureus ATCC 29213. The data set is described as follows: MIC, broth microdilution. In kind it is cell-based. As to conditions: Staphylococcus aureus, ATCC29213, read-out: Minimum inhibitory concentration S.a.^d. On the procedure: (§9) The minimum inhibitory concentration of 3H-imidazo[4,5-C]pyridine pleuromutilin onium salt derivatives against the tested pathogenic microorganisms were determined by broth microdilution method, with valnemulin and retapamulin as positive controls.
(§10) The experimental strains included resistant Gram-positive bacteria: Methicillin-resistant S. aureus ATCC 33591; Methicillin-resistant S. aureus ATCC 43300; S. aureus ATCC 29213; Methicillin-resistant S. epidermidis ATCC 51625. Resistant Gram-negative bacteria: A. baumannii ATCC 19606; S. enterica ATCC14028; E. coli ATCC 25922; E. coli CMCC 44103. 9 clinically isolated resistant strains: MRSA-171; MRSA-575; MRSA-206; MRSA-222; MRSA-596; VRE-80; MDR-PA-126; MDR-KP-893; CR-AB-882.
(§11) (1) Preparation of MHB medium: Weigh 18.0 g of MHB medium pre-made powder, add it to 1 L of distilled water, heat and boil until completely dissolved, divide it into conical bottles, sterilize it by high pressure at 121° C. for 15 minutes, and set aside.
(§12) (2) Cultivate the experimental strain to the logarithmic growth phase: Under sterile conditions, inoculate the experimental strain into fresh MHB medium and culture it in a 37° C. constant temperature and humidity incubator for 16-24 hours. Adjust the bacterial solution concentration to 1.5×10^8 CFU/mL and then dilute it 200 times for later use.
(§13) (3) Preparation of storage solution: Weigh the sample to be tested, dissolve it in 1% DMSO solution, and prepare a storage solution with a concentration of 2560 μg/mL; weigh the positive control, dissolve it in sterile distilled water, and prepare a storage solution with a concentration of 2560 μg/mL.
(§14) (4) Preparation of bacterial suspension: Under sterile conditions, the experimental strain cultured to the logarithmic growth phase was calibrated to a 0.5 McFarland unit turbidity standard using MHB medium and then diluted at a ratio of 1:200 to prepare a bacterial suspension with a concentration of 5×10^5 CFU/mL for later use.
(§15) (5) Determination of MIC by two-fold microdilution method: Take a sterile 96-well plate, add 10 μL of the test compound at a concentration of 2560 μg/mL, and perform serial dilutions by the two-fold dilution method. At the same time, set up a negative control group without drug. Then add 190 μL of diluted bacterial solution to each well, so that the final bacterial solution concentration in each well is 5×10^5 CFU/mL, and incubate in a 37° C. constant temperature and humidity chamber for 24 hours.
For orientation: In broth dilution the organism is exposed to a series of concentrations in liquid medium.

The subject of data set [6] is E.coli CMCC 44103. Put plainly: MIC, broth microdilution. Format: cell-based. As to conditions: Escherichia coli, CMCC44103, read-out: Minimum inhibitory concentration E.c.^i. On the procedure: as §9, §10, §11, §12, §13, §14, §15
The test system of data set [7] is S. enterica ATCC14028. Put plainly: MIC, broth microdilution. In kind it is cell-based. As to conditions: Salmonella enterica, ATCC14028, read-out: Minimum inhibitory concentration S.e.^g. On the procedure:
as §9, §10, §11, §12, §13, §14, §15

The test system of data set [8] is Methicillin-resistant S. aureus ATCC 33591. Put plainly: MIC, broth microdilution. As to conditions: Staphylococcus aureus, ATCC 33591 / MRSA, read-out: Minimum inhibitory concentration MRSA^b. In kind it is cell-based. On the procedure:
as §9, §10, §11, §12, §13, §14, §15

The test system of data set [9] is A. baumannii ATCC 19606. The data set is described as follows: MIC, broth microdilution. Particulars: Acinetobacter baumannii, ATCC19606, read-out: Minimum inhibitory concentration A.b.^f. In kind it is cell-based. On the procedure: as §9, §10, §11, §12, §13, §14, §15
In data set [10] the test system is Methicillin-resistant S. epidermidis ATCC 51625. Put plainly: MIC, broth microdilution. In kind it is cell-based. Particulars: Staphylococcus epidermidis, ATCC 51625 / MRSE, read-out: Minimum inhibitory concentration MRSE^e. On the procedure: as §9, §10, §11, §12, §13, §14, §15
Data set [11] deals with E. coli ATCC 25922. Put plainly: MIC, broth microdilution. In kind it is cell-based. Particulars: Escherichia coli, ATCC25922, read-out: Minimum inhibitory concentration E.c.^h. On the procedure: as §9, §10, §11, §12, §13, §14, §15
Data set [12] deals with Methicillin-resistant S. aureus ATCC 43300. Put plainly: MIC, broth microdilution. Format: cell-based. As to conditions: Staphylococcus aureus, ATCC 43300 / MRSA, read-out: Minimum inhibitory concentration MRSA^c. On the procedure:
as §9, §10, §11, §12, §13, §14, §15

Data set [13] deals with Staphylococcus aureus (MRSA, ATCC 33591). Put plainly: Mouse MRSA systemic infection model, survival rate. In kind it is in vivo. Particulars: MRSA-infected mice, 5, 10, 20 mg/kg single intraperitoneal injection 1 hour after infection, 7-day survival. On the procedure:
as §1
(1) Solution preparation and bacterial activation: Reference Example 15.
as §2
(3) Control group treatment: Mice in the blank control group received intraperitoneal injection of 0.9% saline.
(4) Infection process: Mice were anesthetized with isoflurane and infected by intraperitoneal injection of Staphylococcus aureus (MRSA, ATCC 33591) at a concentration of 10^7 CFU/mL.
(1) Experimental groups: The doses of compound i and valnemulin were 5, 10, and 20 mg/kg, respectively (the solvent was dimethyl sulfoxide: Tween-80: sterile water=1:0.5:9.5);
A model control group (administered with a solvent after infection with bacteria) and a blank control group (administered with a solvent only without infection with bacteria) were set up, with 10 mice in each group, half of which were male and half were female.
(2) Time point: Intraperitoneal injection was performed in the experimental group mice at 1 hour after infection.
(3) Therapeutic dose: The mice in the experimental groups received intraperitoneal injection of 0.5 mL of compound i and valnemulin at different concentrations. […]

Setting [14] is: 5 mg/kg compound i, intraperitoneal.

As a reminder, the CC50 is the concentration giving 50% cytotoxicity. Higher therefore signals lower toxicity to the cells. Regarding `C=C[C@]1(C)C[C@@H](OC(=O)CSC(C)(C)CNC(=O)[C@H](N)C(C)C)[C@]2(C)[C@H](C)CC[C@]3(CCC(=O)[C@H]32)[C@@H](C)[C@@H]1O` [Valnemulin, reference compound], in data set [1] (setting [14]), the “kidney H&E histology” value is given as “inflammatory cell infiltration was still observed”. Besides, the “liver H&E histology” value in [1] (setting [14]) is listed as “still had inflammatory cell infiltration”. The “lung H&E histology” value in [1] (setting [14]) is “alleviated, but they still did not return to normal”. The “spleen H&E histology” value in data set [1] (5 mg/kg, after 7 days of treatment) is “immune response was weakened”. For the same compound, the CC50 in data set [2] came to 65.4 µM; in data set [3], 53.7 µM; in [4], 77.3 µM. Moreover, the MIC came to 4 mg/L (≈ 7.08 µM) in data set [5]; 64 mg/L (≈ 113 µM) in [6]; 64 mg/L (≈ 113 µM) in data set [7]; 64 mg/L (≈ 113 µM) in [8]; 2 mg/L (≈ 3.54 µM) in data set [9]; 64 mg/L (≈ 113 µM) in [10]. For the same compound, the results for the MIC in [11] and in data set [12] were 16 mg/L (≈ 28.3 µM) and 8 mg/L (≈ 14.2 µM), respectively. The “survival rate of mice” value in data set [13] is recorded as “improved”.
